{"source": "PubChem BioAssay AID2060499", "about": "(Molecular Pharmacology Branch, DTP, NCI, 2025)", "system": "777334-354-R2-J4-PDC tumor spheroids with HUVEC/MSC, viability", "experiment": "Anticancer human tumor 777334-354-R2-J4-PDC patient-derived pancreatic adenocarcinoma cell line growth inhibition [GQUAD]", "conditions": "for viability, T/C: stronger effect = lower value", "text": "DNA G-quadruplex Stabilizer Agents in Combinations in Complex Spheroids\nA high-throughput screen of multi-cell type tumor spheroids was designed to identify active combinations of DNA G-quadruplex stabilizer agents and targeted small molecules. Complex spheroids include a stromal component modeled by human endothelial cells (HUVEC) and fibroblasts modeled by human mesenchymal stem cells (MSCs). The concentration ranges selected for each drug and investigational agent were based upon clinically achievable concentrations if the clinical Cmax of the agent was known.\nCompounds. The drugs and investigational agents: pidnarulex (CX-5461; NSC782164), APTO-253 (NSC789042), BRACO-19 (NSC847499), peposertib (NSC802822), ceralasertib (NSC780249), elimusertib (NSC800525), camonsertib (NSC841442), AZD-1390 (NSC803789), olaparib (NSC753686), talazoparib (NSC767125), ART-558 (NSC835418), sotorasib (NSC818433), MRTX-1133 (NSC836407), SN-38 (NSC673596), topotecan (NSC609699), etoposide (NSC141540), doxorubicin (NSC123127), gemcitabine (NSC613327), 5-fluorouracil (NSC19893), paclitaxel (NSC125973), vemurafenib (NSC761431), panobinostat (NSC761190), R-306465 (JNJ-16241199; NSC773264), adavosertib (NSC754352), TP-3654 (NSC805149), carboplatin (NSC241240), KSQ-4279 (NSC840948), and staurosporine (NSC755774) were obtained from the National Cancer Institute (NCI) Developmental Therapeutics Program Chemical Repository (34). The FDA-approved anticancer drug set is available from the NCI Developmental Therapeutics Program. […] The stock solutions were prepared in dimethyl sulfoxide (DMSO, Sigma-Aldrich, St. Louis, MO, cat. D2650) at 800-fold the tested concentration and stored at -70 degrees C prior to their use. All drugs and investigational agents were tested over a range starting from a high concentration at or near the clinical Cmax and decreasing in half-log increments. If the clinical Cmax for an agent had not been determined, the highest concentration tested was 10 microM.\n2.3 Cell Culture. All cells were maintained in an incubator at 37 degrees C and 5% CO2 with 95% humidity. The PDC lines were cultured according to standard operating procedures established by the NCI PDMR. All PDCs were thawed and cultured in Matrigel-coated flasks prepared with a working solution of 1X Ham's F-12 nutrient mix, without supplementation (Invitrogen, cat. 11765054), 100 U/mL penicillin-streptomycin (Invitrogen, cat. 15140122), and 2.5% Matrigel (Corning Inc., cat. 354248) for the first three passages. The 857933-349-R-J2-PDC line was cultured in 6C/Colon 1B media, which includes advanced DMEM/F-12 (Thermo Fisher Scientific, cat. 12634028), 10 mM HEPES (Thermo Fisher Scientific, cat. 15630080), 1X GlutaMAX supplement (Thermo Fisher Scientific, cat. 35050061), 0.1 mg/mL primocin (InvivoGen, cat. ant-pm-2), 10% defined fetal bovine serum, heat inactivated (HyClone Laboratories Inc., cat. SH30070.03HI), 50% L-WRN conditioned media (ATCC, cat. CRL-3276), 1.25 mM N-Acetyl-L-cysteine (Sigma-Aldrich, cat. A9165), 10 mM nicotinamide (Sigma-Aldrich, cat. N0636), 1X B-27 supplement (Thermo Fisher Scientific, cat. 17504044), 1X N-2 supplement (Thermo Fisher Scientific, cat. 17502048), 10 microM Y-27632 dihydrochloride (Tocris Bioscience, cat. 1254), and 50 ng/mL human EGF recombinant protein (Thermo Fisher Scientific, cat. PHG0311). The 485176-168-R4-J1-PDC line was cultured in Panc media, which includes all 6C/Colon 1B media components plus 100 ng/mL human FGF-10 (Thermo Fisher Scientific, cat. 100-26), 500 nM SB-431542 (Selleckchem, cat. S1067), and gastrin (Tocris, cat. 3006).\n[…]", "note": "“And” between values parts separate entries of the source, which are not always exact repeats. Equal entries are not always repeated.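 Further: spheroids exposed to compounds for 7 days before readout.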"}
{"smiles": "O=C(NO)c1cnc(N2CCN(S(=O)(=O)c3ccc4ccccc4c3)CC2)nc1", "values": [{"measurement": "viability, T/C", "setting": "compound 0.0316 µM", "result": "80.7% and 107% and 88.9%"}, {"measurement": "viability, T/C", "setting": "compound 0.1 µM", "result": "89.8% and 86% and 83.7%"}, {"measurement": "viability, T/C", "setting": "compound 0.316 µM", "result": "77.1% (2×) and 79.3%"}, {"measurement": "viability, T/C", "setting": "compound 1 µM", "result": "58% and 59.4% and 44%"}, {"measurement": "viability, T/C", "setting": "compound 3.16 µM", "result": "11.9% and 9.01% and 3.01%"}, {"measurement": "viability, T/C", "setting": "compound 10 µM", "result": "0.93% and 0.25% and 0.19%"}, {"measurement": "IC50", "setting": "curve of compound", "result": "1.2 µM and 1.07 µM and 0.793 µM"}]}
{"smiles": "CCCS(=O)(=O)Nc1ccc(F)c(C(=O)c2c[nH]c3ncc(-c4ccc(Cl)cc4)cc23)c1F", "note": "+ Cc1[nH]c2ccc(F)cc2c1-c1nc2c3cccnc3c3ncccc3c2[nH]1", "values": [{"measurement": "IC50", "setting": "curve of first compound, second compound 0.0316 µM", "result": 7.75, "unit": "µM"}, {"measurement": "IC50", "setting": "curve of first compound, second compound 0.1 µM", "result": 8.35, "unit": "µM"}, {"measurement": "IC50", "setting": "curve of first compound, second compound 0.316 µM", "result": 7.78, "unit": "µM"}, {"measurement": "IC50", "setting": "curve of first compound, second compound 1 µM", "result": 7.02, "unit": "µM"}, {"measurement": "IC50", "setting": "curve of first compound, second compound 3.16 µM", "result": "< 0.0316", "unit": "µM"}, {"measurement": "IC50", "setting": "curve of first compound, second compound 10 µM", "result": "< 0.0316", "unit": "µM"}, {"measurement": "viability, T/C", "setting": "second compound 0.0316 µM, first compound 0.0316 µM", "result": 108, "unit": "%"}, {"measurement": "viability, T/C", "setting": "second compound 0.0316 µM, first compound 0.1 µM", "result": 108, "unit": "%"}, {"measurement": "viability, T/C", "setting": "second compound 0.0316 µM, first compound 0.316 µM", "result": 114, "unit": "%"}, {"measurement": "viability, T/C", "setting": "second compound 0.0316 µM, first compound 1 µM", "result": 111, "unit": "%"}, {"measurement": "viability, T/C", "setting": "second compound 0.0316 µM, first compound 3.16 µM", "result": 124, "unit": "%"}, {"measurement": "viability, T/C", "setting": "second compound 0.0316 µM, first compound 10 µM", "result": 32, "unit": "%"}, {"measurement": "viability, T/C", "setting": "second compound 0.1 µM, first compound 0.0316 µM", "result": 111, "unit": "%"}, {"measurement": "viability, T/C", "setting": "second compound 0.1 µM, first compound 0.1 µM", "result": 104, "unit": "%"}, {"measurement": "viability, T/C", "setting": "second compound 0.1 µM, first compound 0.316 µM", "result": 109, "unit": "%"}, {"measurement": "viability, T/C", "setting": "second compound 0.1 µM, first compound 1 µM", "result": 122, "unit": "%"}, {"measurement": "viability, T/C", "setting": "second compound 0.1 µM, first compound 3.16 µM", "result": 130, "unit": "%"}, {"measurement": "viability, T/C", "setting": "second compound 0.1 µM, first compound 10 µM", "result": 38, "unit": "%"}, {"measurement": "viability, T/C", "setting": "second compound 0.316 µM, first compound 0.0316 µM", "result": 94.7, "unit": "%"}, {"measurement": "viability, T/C", "setting": "second compound 0.316 µM, first compound 0.1 µM", "result": 102, "unit": "%"}, {"measurement": "viability, T/C", "setting": "second compound 0.316 µM, first compound 0.316 µM", "result": 96.2, "unit": "%"}, {"measurement": "viability, T/C", "setting": "second compound 0.316 µM, first compound 1 µM", "result": 126, "unit": "%"}, {"measurement": "viability, T/C", "setting": "second compound 0.316 µM, first compound 3.16 µM", "result": 117, "unit": "%"}, {"measurement": "viability, T/C", "setting": "second compound 0.316 µM, first compound 10 µM", "result": 33.9, "unit": "%"}, {"measurement": "viability, T/C", "setting": "second compound 1 µM, first compound 0.0316 µM", "result": 79.8, "unit": "%"}, {"measurement": "viability, T/C", "setting": "second compound 1 µM, first compound 0.1 µM", "result": 99.4, "unit": "%"}, {"measurement": "viability, T/C", "setting": "second compound 1 µM, first compound 0.316 µM", "result": 92.4, "unit": "%"}, {"measurement": "viability, T/C", "setting": "second compound 1 µM, first compound 1 µM", "result": 109, "unit": "%"}, {"measurement": "viability, T/C", "setting": "second compound 1 µM, first compound 3.16 µM", "result": 111, "unit": "%"}, {"measurement": "viability, T/C", "setting": "second compound 1 µM, first compound 10 µM", "result": 28.5, "unit": "%"}, {"measurement": "viability, T/C", "setting": "second compound 3.16 µM, first compound 0.0316 µM", "result": 50.2, "unit": "%"}, {"measurement": "viability, T/C", "setting": "second compound 3.16 µM, first compound 0.1 µM", "result": 46.1, "unit": "%"}, {"measurement": "viability, T/C", "setting": "second compound 3.16 µM, first compound 0.316 µM", "result": 33.2, "unit": "%"}, {"measurement": "viability, T/C", "setting": "second compound 3.16 µM, first compound 1 µM", "result": 30.6, "unit": "%"}, {"measurement": "viability, T/C", "setting": "second compound 3.16 µM, first compound 3.16 µM", "result": 38.5, "unit": "%"}, {"measurement": "viability, T/C", "setting": "second compound 3.16 µM, first compound 10 µM", "result": 13.8, "unit": "%"}, {"measurement": "viability, T/C", "setting": "second compound 10 µM, first compound 0.0316 µM", "result": 44.3, "unit": "%"}, {"measurement": "viability, T/C", "setting": "second compound 10 µM, first compound 0.1 µM", "result": 31.9, "unit": "%"}, {"measurement": "viability, T/C", "setting": "second compound 10 µM, first compound 0.316 µM", "result": 43.8, "unit": "%"}, {"measurement": "viability, T/C", "setting": "second compound 10 µM, first compound 1 µM", "result": 28.8, "unit": "%"}, {"measurement": "viability, T/C", "setting": "second compound 10 µM, first compound 3.16 µM", "result": 28.4, "unit": "%"}, {"measurement": "viability, T/C", "setting": "second compound 10 µM, first compound 10 µM", "result": 15.8, "unit": "%"}]}
